Values after ≈ are worked out from the molar mass of the structure shown.
Assays:
[1] = Stability at elevated temperatures and relative humidity; type: physicochemical
Procedure: A sample of RP-4 was stored in a humidity chamber at 40° C. and 75% relative humidity for one week, and the sample was reanalyzed by XRPD. […] This should be contrasted to a sample of 4, which deliquesced within about 16 hours upon storage at 40° C. and 75% relative humidity. Indeed, an illustration of the deliquescent nature of 4 is illustrated by the following. A sample of 4 was passed through a 250 μm sieve then samples were stored at 40° C./75% RH and 25° C./53% relative humidity and visual observations were taken at regular intervals.
Upon storage at 40° C. and 75% relative humidity a sample of SP-4 deliquesced inside 16 hours. For instance, a sample of SP-4 was ground with a pestle and mortar, and then successively passed through 500 and 250 μm sieves to yield the sample as a fine powder. Samples of this material were stored at 40° C. and 75% relative humidity and 25° C. and 53% RH and visual observations were taken at regular intervals.

[2] = tested on: hepatitis C virus, genotypes 1-4; assay: Genotype coverage
[3] = Gravimetric vapour sorption (GVS); type: physicochemical; details: 25° C.
Procedure: Sorption isotherms were obtained using a SMS DVS Intrinsic moisture sorption analyzer, controlled by SMS Analysis Suite software. The sample temperature was maintained at 25° C. by the instrument controls. The humidity was controlled by mixing streams of dry and wet nitrogen, with a total flow rate of 200 ml·min^−1. The relative humidity was measured by a calibrated Rotronic probe (dynamic range of 1.0-100% RH), located near the sample. The weight change, (mass relaxation) of the sample as a function of % RH was constantly monitored by the microbalance (accuracy ±0.005 mg).
Typically 5-20 mg of sample was placed in a tared mesh stainless steel basket under ambient conditions. The sample was loaded and unloaded at 40% RH and 25° C. (typical room conditions). A moisture sorption isotherm was performed as outlined below (2 scans giving 1 complete cycle). The standard isotherm was performed at 25° C. at 10% RH intervals over a 0.5-90% RH range.
The sample was recovered after completion of the isotherm and re-analyzed by XRPD.
A sample of SP-4 was ground with a pestle and mortar, and then successively passed through 500 and 250 μm sieves to yield the sample as a fine powder that was then analyzed using a modified single cycle method. The sample was taken from 40% RH (approximately ambient) to 60% RH, instead of 90% for the standard method, and then cycled to 0% and back to 40% RH.

[4] = Thermodynamic aqueous solubility; type: physicochemical; details: for pH of Unfiltered mixture: aqueous suspension after 24 hours at 25° C.; for solubility at 24 h / Solubility: water; for solubility at 24 h: 25 °C, thermodynamic from solid, summary of batch characterization (Table 16), read-out: Aq Solubility; for Solubility: equilibrated at 25° C. for 24 hours, HPLC quantitation
Procedure: Aqueous solubility was determined by suspending a sufficient amount of compound in water to give a maximum final concentration of >10 mg·ml^−1 of the parent free-form of the compound. The suspension was equilibrated at 25° C. for 24 hours then the pH was measured. The suspension was then filtered through a glass fiber C filter into a 96 well plate. The filtrate was then diluted by a factor of 101. Quantitation was by HPLC with reference to a standard solution of approximately 0.1 mg·ml^−1 in DMSO. Different volumes of the standard, diluted and undiluted sample solutions were injected. The solubility was calculated using the peak areas determined by integration of the peak found at the same retention time as the principal peak in the standard injection.
Analysis was performed under the above-noted conditions on an Agilent HP1100 series system equipped with a diode array detector and using ChemStation software vB.02.01-SR1.

HCV replication = assay: HCV replicon assay (firefly luciferase reporter); type: cell-based, hepatitis C virus; details: replicon containing cells, 4 days incubation, Bright-Glo firefly luciferase reporter
Procedure: Replicon containing cells were seeded at either 3,000 cells/well (50 μL) in 96-well white/opaque plates, or 1,500 cells/well (25 μL) in 384-well white/opaque plates. 50 μL of 2× compound were added in the 96 well plate or 25 μL of 2× compound were added in the 384 well plate. The plates were incubated at 37° C. in a humidified 5% CO2 atmosphere for 4 days. After incubation, Bright-Glo reagent (50 μL for 96-well plate, or 25 μL for 384-well plate) was added to measure the firefly luciferase reporter for HCV replication. Percent inhibition was calculated against the no drug control.

[5] = Storage stability of crystalline form in a sealed container; type: physicochemical
Text: First, by allowing fine crystals of Form 1 to be exposed to atmospheric humidity for several days, a monohydrate of Form 1 is produced with an appearance of a solidified gum. After grinding the monohydrate solid to a fine powder, the XRPD pattern remains consistent with Form 1. Upon standing in an open vessel for 6-10 weeks, the ground material slowly changes to Form 6 as an anhydrous solid. Form 1 is stable for at least 2 years in a sealed container.

[6] = summary of batch characterization (Table 16)

| SMILES | change in solid form by XRPD after storage ([1]; 40° C. and 75% relative humidity for one week) | 40° C./75% RH (stability summary) [1, 6] | activity against hepatitis C virus, genotypes 1-4 (broad genotype coverage) [2] | hygroscopicity by GVS analysis [3] | reversible uptake of water ([3]; from 0 to 90% relative humidity) | pH of Unfiltered mixture [4] | solubility at 24 h [4] [µg/mL] | Solubility [4] [mg. m1^−1] | HCV Replicon Activity (HCV replication) [µM] | time to deliquescence upon storage ([1]; 40° C. and 75% relative humidity) [h] | 25° C./53% RH (stability summary) [1, 6] | stable in a sealed container [5] | visual observation (stability to elevated relative humidity) ([1]; 40° C./75% RH, t = 4.5 h) |
| --- | --- | --- | --- | --- | --- | --- | --- | --- | --- | --- | --- | --- | --- |
| CC(C)OC(=O)[C@H](C)N[P@@](=O)(OC[C@H]1O[C@@H](n2ccc(=O)[nH]c2=O)[C@](C)(F)[C@@H]1O)Oc1ccccc1 (single isomer, unassigned) [RP-4] | no change in solid form was observed | No form change | active | non-hygroscopic | approximately 0.2 wt % | 7.12 | 1580 (≈ 2.98 mM) | 1.58 | 2.87 |  |  |  |  |
| CC(C)OC(=O)[C@H](C)NP(=O)(OC[C@H]1O[C@@H](n2ccc(=O)[nH]c2=O)[C@](C)(F)[C@@H]1O)Oc1ccccc1 (stereo partly drawn) [Compound 4, (S)-2-{[(1R,4R,5R)-5-(2,4-Dioxo-3,4-dihydro-2H-pyrimidin-1-yl)-4-(R)-fluoro-3-hydroxy-4-methyl-tetrahydro-furan-2-ylmethoxy]-phenoxy-phosphorylamino}-propionic acid isopropyl ester] |  |  |  |  |  | 7.03 | 6110 (≈ 11.5 mM) | 6.11 | 0.58 | ≤ 16 | Deliquescence |  |  |
| CC(C)OC(=O)[C@H](C)N[P@](=O)(OC[C@H]1O[C@@H](n2ccc(=O)[nH]c2=O)[C@](C)(F)[C@@H]1O)Oc1ccccc1 [Form 1] |  |  |  |  |  |  |  |  |  |  |  | at least 2 years |  |
| CC(C)OC(=O)[C@H](C)N[P@](=O)(OC[C@H]1O[C@@H](n2ccc(=O)[nH]c2=O)[C@](C)(F)[C@@H]1O)Oc1ccccc1 [SP-4, (S)-Isopropyl 2-((S)-(((2R,3R,4R,5R)-5-(2,4-dioxo-3,4-dihydropyrimidin-1(2H)-yl)-4-fluoro-3-hydroxy-4-methyltetrahydrofuran-2-yl)methoxy)(phenoxy)phosphorylamino)propanoate] |  |  | active |  |  |  | 5650 (≈ 10.7 mM) | 5.65 | 0.13 |  | No form change |  | Deliquescence |
